# In patent US12194053B2, “Compositions and methods for reducing oxidative damage” (University of Louisville Research Foundation, Inc., priority 2012, dated 2025):
# Read-outs that look alike come from different tables or passages of the source.
# System: porcine lenses
# Source text: To analyze the efficacy and the biocompatibility of the compositions produced as described above, an ex viva analysis was undertaken in which the compositions were applied to eye lenses ex vivo. In these experiments, harvested porcine lenses were utilized.
# Upon establishing the culturing conditions for the lenses, hyperoxic conditions were created and used to test the efficacy of the gelled compositions in protecting against oxidative damage and cataract formation. Briefly, in these experiments, two methods were used to test the efficacy of the compositions in preventing oxidative lens damage. Initially, oxidative damage with superoxide radicals generated by the addition of hydrogen peroxide into the lens culture medium was employed.
smiles,measurement,setting,value
"OO [H2O2, hydrogen peroxide]",day lens clarity started to be affected,0.3 mM H2O2,9 days
same,lens area opacified by day 14,0.3 mM H2O2,40%
same,day lens opacity started,0.4 mM H2O2,5 days
same,lens area covered by opacity by day 14,0.4 mM H2O2,60%
same,day lens opacity started,0.5 mM H2O2,3 days
same,lens opacity on day 14,0.5 mM H2O2,90%
same,extent of cataract by day 5,1 mM H2O2,total cataract
same,time lens opacity first appeared,1 mM H2O2 in lens culture medium,24 h
same,lens opacification,"H2O2 concentrations below 0.3 mM, up to 28 days of ex vivo culturing",did not appear to cause any lens opacification
